Assay results: BigSolDB 2.1

O=C(O)CCc1nc(-c2ccccc2)c(-c2ccccc2)o1
solubility (mole fraction)
Conditions | 278.15 K | 283.15 K | 288.15 K | 293.15 K | 298.15 K | 303.15 K | 308.15 K | 313.15 K | 318.15 K | 323.15 K
in DMAc | 0.205 | 0.213 | 0.223 | 0.232 | 0.243 | 0.252 | 0.261 | 0.273 | 0.284 | 0.295
in DMF | 0.136 | 0.146 | 0.154 | 0.164 | 0.174 | 0.186 | 0.197 | 0.207 | 0.219 | 0.232
in DMSO | – | – | – | 0.214 | 0.226 | 0.24 | 0.256 | 0.272 | 0.287 | 0.303
in ethanol | 0.00257 | 0.00315 | 0.00388 | 0.00476 | 0.00592 | 0.00716 | 0.00894 | 0.0112 | 0.014 | 0.0177
in ethyl acetate | 0.00398 | 0.00472 | 0.00558 | 0.00661 | 0.00778 | 0.00925 | 0.011 | 0.0129 | 0.0151 | 0.0178
in methanol | 0.0023 | 0.00282 | 0.00343 | 0.00426 | 0.00523 | 0.00657 | 0.00821 | 0.0103 | 0.013 | 0.0164
in methyl acetate | 0.00533 | 0.00626 | 0.00735 | 0.00867 | 0.0102 | 0.012 | 0.0146 | 0.0167 | 0.0192 | 0.022
in n-butanol | 0.00266 | 0.00328 | 0.00422 | 0.00533 | 0.00663 | 0.008 | 0.0105 | 0.0131 | 0.0164 | 0.0205
in n-butyl acetate | 0.00293 | 0.00347 | 0.00416 | 0.00489 | 0.00593 | 0.00707 | 0.00842 | 0.01 | 0.012 | 0.0143
in n-pentanol | 0.00266 | 0.00349 | 0.00458 | 0.00561 | 0.00701 | 0.00864 | 0.0108 | 0.0134 | 0.0168 | 0.021
in n-pentyl acetate | 0.00274 | 0.00331 | 0.00387 | 0.0046 | 0.0055 | 0.00654 | 0.00782 | 0.00931 | 0.0111 | 0.0132
in n-propanol | 0.00255 | 0.00326 | 0.00414 | 0.00519 | 0.00637 | 0.00794 | 0.01 | 0.0122 | 0.0161 | 0.0201
in n-propyl acetate | 0.0032 | 0.00386 | 0.00463 | 0.00534 | 0.00656 | 0.00781 | 0.00935 | 0.0111 | 0.0132 | 0.0158
